In the NIST ThermoML archive (doi:10.1021/acs.jced.8b00236):
± gives the expanded uncertainty stated by the source.

Assay: mn = molality of the nth substance listed, in mol/kg
Conditions: 75 kPa, Liquid; for viscosity: Capillary tube (Ostwald / Ubbelohde) method; for speed of sound: Frequency=3 MHz, Single path-length method; for mass density: Vibrating tube method

Compound `NCCCCCC(=O)O` [6-aminohexanoic acid] + O has a viscosity (288.15 K, m1 = 0.1386) of 1.237 ± 0.026 mPa·s, a viscosity (288.15 K, m1 = 0.2786) of 1.324 ± 0.028 mPa·s and a viscosity (288.15 K, m1 = 0.4193) of 1.43 ± 0.03 mPa·s. It also gave a viscosity (288.15 K, m1 = 0.5602) of 1.543 ± 0.032 mPa·s, a viscosity (288.15 K, m1 = 0.7027) of 1.676 ± 0.035 mPa·s and a viscosity (288.15 K, m1 = 0.8448) of 1.804 ± 0.037 mPa·s. It also gave a viscosity (288.15 K, m1 = 0.9881) of 1.945 ± 0.04 mPa·s, a viscosity (288.15 K, m1 = 1.132) of 2.103 ± 0.044 mPa·s and a speed of sound (288.15 K, m1 = 0.1386) of 1484.1 ± 4 m/s. For the same compound, the speed of sound (288.15 K, m1 = 0.2786) was 1501.7 ± 4 m/s, the speed of sound (288.15 K, m1 = 0.4193) was 1518.8 ± 4 m/s and the speed of sound (288.15 K, m1 = 0.5602) was 1535.5 ± 4 m/s. It also gave a speed of sound (288.15 K, m1 = 0.7027) of 1551.7 ± 4 m/s, a speed of sound (288.15 K, m1 = 0.8448) of 1566.7 ± 4 m/s and a speed of sound (288.15 K, m1 = 0.9881) of 1581.4 ± 4 m/s. The speed of sound (288.15 K, m1 = 1.132) was 1595.3 ± 4 m/s, the mass density (288.15 K, m1 = 0.1386) was 1002.94 ± 0.3 kg/m3 and the mass density (288.15 K, m1 = 0.2786) was 1006.69 ± 0.3 kg/m3. It also gave a mass density (288.15 K, m1 = 0.4193) of 1010.34 ± 0.3 kg/m3, a mass density (288.15 K, m1 = 0.5602) of 1013.86 ± 0.3 kg/m3 and a mass density (288.15 K, m1 = 0.7027) of 1017.3 ± 0.3 kg/m3. For the same compound, the mass density (288.15 K, m1 = 0.8448) was 1020.62 ± 0.3 kg/m3, the mass density (288.15 K, m1 = 0.9881) was 1023.86 ± 0.3 kg/m3 and the mass density (288.15 K, m1 = 1.132) was 1026.99 ± 0.3 kg/m3. For the same compound, the viscosity (293.15 K, m1 = 0.1386) was 1.088 ± 0.023 mPa·s, the viscosity (293.15 K, m1 = 0.2786) was 1.158 ± 0.024 mPa·s and the viscosity (293.15 K, m1 = 0.4193) was 1.25 ± 0.026 mPa·s. For the same compound, the viscosity (293.15 K, m1 = 0.5602) was 1.344 ± 0.028 mPa·s, the viscosity (293.15 K, m1 = 0.7027) was 1.459 ± 0.03 mPa·s and the viscosity (293.15 K, m1 = 0.8448) was 1.566 ± 0.032 mPa·s. For the same compound, the viscosity (293.15 K, m1 = 0.9881) was 1.689 ± 0.035 mPa·s, the viscosity (293.15 K, m1 = 1.132) was 1.825 ± 0.038 mPa·s and the speed of sound (293.15 K, m1 = 0.1386) was 1499.7 ± 4 m/s. For the same compound, the speed of sound (293.15 K, m1 = 0.2786) was 1516.3 ± 4 m/s, the speed of sound (293.15 K, m1 = 0.4193) was 1532.6 ± 4 m/s and the speed of sound (293.15 K, m1 = 0.5602) was 1548.3 ± 4 m/s. For the same compound, the speed of sound (293.15 K, m1 = 0.7027) was 1563.8 ± 4 m/s, the speed of sound (293.15 K, m1 = 0.8448) was 1578.3 ± 4 m/s and the speed of sound (293.15 K, m1 = 0.9881) was 1592.5 ± 4 m/s. The speed of sound (293.15 K, m1 = 1.132) was 1606 ± 4 m/s, the mass density (293.15 K, m1 = 0.1386) was 1001.94 ± 0.3 kg/m3 and the mass density (293.15 K, m1 = 0.2786) was 1005.61 ± 0.3 kg/m3. It also gave a mass density (293.15 K, m1 = 0.4193) of 1009.17 ± 0.3 kg/m3, a mass density (293.15 K, m1 = 0.5602) of 1012.62 ± 0.3 kg/m3 and a mass density (293.15 K, m1 = 0.7027) of 1016.01 ± 0.3 kg/m3. It also gave a mass density (293.15 K, m1 = 0.8448) of 1019.28 ± 0.3 kg/m3, a mass density (293.15 K, m1 = 0.9881) of 1022.48 ± 0.3 kg/m3 and a mass density (293.15 K, m1 = 1.132) of 1025.6 ± 0.3 kg/m3. It also gave a viscosity (298.15 K, m1 = 0.1386) of 0.962 ± 0.02 mPa·s, a viscosity (298.15 K, m1 = 0.2786) of 1.025 ± 0.021 mPa·s and a viscosity (298.15 K, m1 = 0.4193) of 1.103 ± 0.023 mPa·s. For the same compound, the viscosity (298.15 K, m1 = 0.5602) was 1.183 ± 0.025 mPa·s, the viscosity (298.15 K, m1 = 0.7027) was 1.277 ± 0.027 mPa·s and the viscosity (298.15 K, m1 = 0.8448) was 1.377 ± 0.029 mPa·s. It also gave a viscosity (298.15 K, m1 = 0.9881) of 1.481 ± 0.031 mPa·s, a viscosity (298.15 K, m1 = 1.132) of 1.59 ± 0.033 mPa·s and a speed of sound (298.15 K, m1 = 0.1386) of 1513 ± 4 m/s. It also gave a speed of sound (298.15 K, m1 = 0.2786) of 1529 ± 4 m/s, a speed of sound (298.15 K, m1 = 0.4193) of 1544.6 ± 4 m/s and a speed of sound (298.15 K, m1 = 0.5602) of 1559.8 ± 4 m/s. It also gave a speed of sound (298.15 K, m1 = 0.7027) of 1574.6 ± 4 m/s, a speed of sound (298.15 K, m1 = 0.8448) of 1588.6 ± 4 m/s and a speed of sound (298.15 K, m1 = 0.9881) of 1602.2 ± 4 m/s. The speed of sound (298.15 K, m1 = 1.132) was 1615.3 ± 4 m/s, the mass density (298.15 K, m1 = 0.1386) was 1000.74 ± 0.3 kg/m3 and the mass density (298.15 K, m1 = 0.2786) was 1004.36 ± 0.3 kg/m3. It also gave a mass density (298.15 K, m1 = 0.4193) of 1007.89 ± 0.3 kg/m3, a mass density (298.15 K, m1 = 0.5602) of 1011.3 ± 0.3 kg/m3 and a mass density (298.15 K, m1 = 0.7027) of 1014.65 ± 0.3 kg/m3. It also gave a mass density (298.15 K, m1 = 0.8448) of 1017.88 ± 0.3 kg/m3, a mass density (298.15 K, m1 = 0.9881) of 1021.04 ± 0.3 kg/m3 and a mass density (298.15 K, m1 = 1.132) of 1024.11 ± 0.3 kg/m3. The viscosity (303.15 K, m1 = 0.1386) was 0.865 ± 0.018 mPa·s, the viscosity (303.15 K, m1 = 0.2786) was 0.916 ± 0.019 mPa·s and the viscosity (303.15 K, m1 = 0.4193) was 0.984 ± 0.02 mPa·s. For the same compound, the viscosity (303.15 K, m1 = 0.5602) was 1.062 ± 0.022 mPa·s, the viscosity (303.15 K, m1 = 0.7027) was 1.137 ± 0.024 mPa·s and the viscosity (303.15 K, m1 = 0.8448) was 1.222 ± 0.025 mPa·s. The viscosity (303.15 K, m1 = 0.9881) was 1.314 ± 0.027 mPa·s, the viscosity (303.15 K, m1 = 1.132) was 1.423 ± 0.03 mPa·s and the speed of sound (303.15 K, m1 = 0.1386) was 1524.5 ± 4 m/s. For the same compound, the speed of sound (303.15 K, m1 = 0.2786) was 1539.8 ± 4 m/s, the speed of sound (303.15 K, m1 = 0.4193) was 1554.7 ± 4 m/s and the speed of sound (303.15 K, m1 = 0.5602) was 1569.1 ± 4 m/s. The speed of sound (303.15 K, m1 = 0.7027) was 1583.2 ± 4 m/s, the speed of sound (303.15 K, m1 = 0.8448) was 1596.8 ± 4 m/s and the speed of sound (303.15 K, m1 = 0.9881) was 1610 ± 4 m/s. The speed of sound (303.15 K, m1 = 1.132) was 1622.5 ± 4 m/s, the mass density (303.15 K, m1 = 0.1386) was 999.323 ± 0.3 kg/m3 and the mass density (303.15 K, m1 = 0.2786) was 1002.91 ± 0.3 kg/m3. It also gave a mass density (303.15 K, m1 = 0.4193) of 1006.4 ± 0.3 kg/m3, a mass density (303.15 K, m1 = 0.5602) of 1009.78 ± 0.3 kg/m3 and a mass density (303.15 K, m1 = 0.7027) of 1013.08 ± 0.3 kg/m3. For the same compound, the mass density (303.15 K, m1 = 0.8448) was 1016.26 ± 0.3 kg/m3, the mass density (303.15 K, m1 = 0.9881) was 1019.37 ± 0.3 kg/m3 and the mass density (303.15 K, m1 = 1.132) was 1022.39 ± 0.3 kg/m3. For the same compound, the viscosity (308.15 K, m1 = 0.1386) was 0.781 ± 0.016 mPa·s, the viscosity (308.15 K, m1 = 0.2786) was 0.821 ± 0.017 mPa·s and the viscosity (308.15 K, m1 = 0.4193) was 0.881 ± 0.018 mPa·s. The viscosity (308.15 K, m1 = 0.5602) was 0.949 ± 0.02 mPa·s, the viscosity (308.15 K, m1 = 0.7027) was 1.02 ± 0.021 mPa·s and the viscosity (308.15 K, m1 = 0.8448) was 1.096 ± 0.023 mPa·s. For the same compound, the viscosity (308.15 K, m1 = 0.9881) was 1.177 ± 0.024 mPa·s, the viscosity (308.15 K, m1 = 1.132) was 1.267 ± 0.026 mPa·s and the speed of sound (308.15 K, m1 = 0.1386) was 1534.6 ± 4 m/s. It also gave a speed of sound (308.15 K, m1 = 0.2786) of 1549.2 ± 4 m/s, a speed of sound (308.15 K, m1 = 0.4193) of 1563.5 ± 4 m/s and a speed of sound (308.15 K, m1 = 0.5602) of 1577.4 ± 4 m/s. The speed of sound (308.15 K, m1 = 0.7027) was 1591 ± 4 m/s, the speed of sound (308.15 K, m1 = 0.8448) was 1603.9 ± 4 m/s and the speed of sound (308.15 K, m1 = 0.9881) was 1616.4 ± 4 m/s. For the same compound, the speed of sound (308.15 K, m1 = 1.132) was 1628.4 ± 4 m/s, the mass density (308.15 K, m1 = 0.1386) was 997.675 ± 0.3 kg/m3 and the mass density (308.15 K, m1 = 0.2786) was 1001.24 ± 0.3 kg/m3. For the same compound, the mass density (308.15 K, m1 = 0.4193) was 1004.7 ± 0.3 kg/m3, the mass density (308.15 K, m1 = 0.5602) was 1008.06 ± 0.3 kg/m3 and the mass density (308.15 K, m1 = 0.7027) was 1011.35 ± 0.3 kg/m3. For the same compound, the mass density (308.15 K, m1 = 0.8448) was 1014.52 ± 0.3 kg/m3, the mass density (308.15 K, m1 = 0.9881) was 1017.62 ± 0.3 kg/m3 and the mass density (308.15 K, m1 = 1.132) was 1020.64 ± 0.3 kg/m3.
